# Measurements taken from PMC3725620 (Breast cancer research and treatment, 2011).
# Key:
# [1] = target: prostaglandin E receptor EP4 (Homo sapiens, UniProt P35408); experiment: inhibition of 3H-PGE2 radioligand binding; assay type: cell-based
# [2] = target: prostaglandin E receptor EP2 (Homo sapiens, UniProt P43116); experiment: inhibition of 3H-PGE2 radioligand binding; assay type: cell-based
# Sequence of prostaglandin E receptor EP2 (P43116 whole entry): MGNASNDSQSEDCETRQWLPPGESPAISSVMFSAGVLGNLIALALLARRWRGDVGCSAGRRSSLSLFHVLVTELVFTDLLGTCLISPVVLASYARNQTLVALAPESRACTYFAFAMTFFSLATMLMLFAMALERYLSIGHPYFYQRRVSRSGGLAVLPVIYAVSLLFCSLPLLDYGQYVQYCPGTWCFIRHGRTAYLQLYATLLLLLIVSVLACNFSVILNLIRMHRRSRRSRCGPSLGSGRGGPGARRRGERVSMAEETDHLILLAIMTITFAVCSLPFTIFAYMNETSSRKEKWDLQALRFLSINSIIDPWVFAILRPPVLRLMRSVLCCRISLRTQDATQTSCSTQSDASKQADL
# Sequence of prostaglandin E receptor EP4 (P35408 whole entry): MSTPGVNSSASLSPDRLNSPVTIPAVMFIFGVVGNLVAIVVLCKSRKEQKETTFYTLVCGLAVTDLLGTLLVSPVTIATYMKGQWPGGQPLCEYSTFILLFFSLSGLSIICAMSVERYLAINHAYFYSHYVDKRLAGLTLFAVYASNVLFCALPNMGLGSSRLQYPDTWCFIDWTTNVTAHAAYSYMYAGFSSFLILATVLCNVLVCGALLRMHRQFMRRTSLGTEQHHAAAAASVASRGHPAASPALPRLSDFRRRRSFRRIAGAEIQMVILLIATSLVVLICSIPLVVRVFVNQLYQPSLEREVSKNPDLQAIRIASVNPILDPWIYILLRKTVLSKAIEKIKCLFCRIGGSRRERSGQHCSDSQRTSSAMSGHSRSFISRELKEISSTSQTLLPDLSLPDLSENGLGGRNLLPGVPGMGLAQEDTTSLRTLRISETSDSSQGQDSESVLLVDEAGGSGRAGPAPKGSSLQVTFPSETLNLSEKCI
compound,measurement,setting,value
"CO[C@@H]1[C@@H](O)[C@H](O[C@@H]2[C@@H](O)[C@H](O[C@H]3[C@H](O)[C@@H](O[C@@H]4OC[C@@H](O)[C@H](O)[C@H]4O)[C@H](O[C@H]4[C@H](OC5CC[C@]6(C)[C@H]7CCC89C(=O)O[C@@](C)(CCCC(C)C)C8[C@@H](OC(C)=O)C[C@@]9(C)C7=CC[C@H]6C5(C)C)OC[C@@H](OS(=O)(=O)O)[C@@H]4O)O[C@@H]3C)OC[C@H]2O)O[C@H](CO)[C@H]1O (some centres unmarked) [FA, Frondoside A]",IC50,[1],~3.7 µM
same,IC50,[2],16.5 µM
